“Also recorded” adds a separate entry of the source. Where two headings read alike, the source gives them in different places.
Key:
[1] = system: hormone receptor-positive breast cancer MCF-7 cell line; assay: Cytotoxicity, resazurin assay, 96 h, MCF-7; assay type: cell-based; conditions: for IC50 / cytotoxic activity against MCF-7 (in words): MCF-7 cells; for IC50: 96 h, read-out: MCF-7 (IC50 and SD); for Selectivity Index (SI) MCF-7: IC50 in MCF12A / IC50 in MCF-7
Procedure: (§1) The cytotoxicity and IC50 values of the isolated compounds were evaluated in three cell lines, namely, the HCC70 basal triple-negative breast cancer (TNBC) cell line (ATCC: CRL-2315), the hormone receptor-positive breast cancer MCF-7 cell line (ATCC: HTB-22) and the non-tumorigenic breast epithelial cell line MCF12A (ATCC: CRL-10782) using the resazurin assay. The cells were seeded at a density of 5000 cells/well in a 96-well plate and allowed to attach overnight at 37 °C and 9% CO2. The cells were then treated with DMSO as vehicle control (0.2% vM), paclitaxel (Sigma-Aldrich, St. Louis, USA) as a positive control (0.32 to 200 nm) and a six-point range concentration (0.32 to 200 μM) of the isolated pure compounds and incubated for 96 h at 37 DC in a humidified 9% CO2 incubator. Resazurin ([…]) was added to the cells, and the cells were incubated for 2–4 h at 37 °C in 9% CO2. Fluorescence readings were obtained on a Spectramax spectrophotometer (excitation and emission wavelength set to 560 nm and 590 nm, respectively). The experiment was performed in triplicate, and the data was analyzed using GraphPad Prism Inc., (Version 4, USA) with a half-maximal inhibitory concentration (IC50 values) determined by non-linear regression. A selectivity index (SI) was determined for each compound to determine its therapeutic significance in cancerous cells. It was calculated as follows: Selectivity index (SI) = IC50 of compound in MCF12A/IC50 of compound in cancer line
(§2) SI function is a crucial metric for assessing a compound’s potential safety, with values below 1 indicating toxicity and those above 10 implying high selectivity for further investigation.

[2] = system: HCC70 basal triple-negative breast cancer (TNBC) cell line; assay: Cytotoxicity, resazurin assay, 96 h, HCC70; assay type: cell-based; conditions: for IC50: 96 h, read-out: HCC70 (IC50 and SD); for Selectivity Index (SI) HCC70: IC50 in MCF12A / IC50 in HCC70
Procedure: as §1, §2

[3] = system: non-tumorigenic breast epithelial cell line MCF12A; assay: Cytotoxicity, resazurin assay, 96 h, MCF-12A; assay type: cell-based; conditions: MCF-12A cells; for IC50: 96 h, read-out: MCF-12A (IC50 and SD)
Procedure: as §1, §2

NF-kappa B = conditions: cited from earlier work
[4] = system: leukemic cell line (L1210); parameters: method as in PMID 12612427; conditions: cited from earlier work
[5] = Homo sapiens, MCF7, 96 h, resazurin, triplicate
[6] = resazurin, triplicate, listed as 13R-Nepetaefolin (2)
[7] = Homo sapiens, HCC70, 96 h, HCC70 cells, resazurin, triplicate
[8] = Homo sapiens, MCF-12A, resazurin, triplicate

**Q.** Which IC50 [1, 5] does the source give for `CC(=O)O[C@@H]1C[C@@]2(CO2)[C@]2(CC[C@]3(C=COC3)O2)[C@]23CCC[C@](C)(C(=O)OC2)[C@H]13` [Compound 2, nepetaefolin] here?
**A.** > 200000 nM

**Q.** And the IC50 [1, 6]?
**A.** > 200000 nM

**Q.** And the “cytotoxic activity against HCC70 (in words)” value ([2]; HCC70 cells)?
**A.** no activity; also recorded: no such effects

**Q.** What about the IC50 ([2]; HCC70 cells, resazurin, triplicate, listed as 13R-Nepetaefolin (2)) of the same molecule?
**A.** > 200000 nM

**Q.** What about the IC50 [2, 7] of the same molecule?
**A.** > 200000 nM

**Q.** And the IC50 [3, 8]?
**A.** > 200000 nM

**Q.** And the IC50 [3, 6]?
**A.** > 200000 nM

**Q.** With `CC(=O)O[C@H]1C(=O)[C@@]2(C)[C@H]([C@H](OC(=O)c3ccccc3)[C@]3(O)C[C@H](OC(=O)[C@H](O)[C@@H](NC(=O)c4ccccc4)c4ccccc4)C(C)=C1C3(C)C)[C@]1(OC(C)=O)CO[C@@H]1C[C@@H]2O` [Paclitaxel, paclitaxel, reference compound] as the molecule, how does the IC50 ([1]; Homo sapiens, MCF7, 96 h, positive control in nM) read?
**A.** 2.41 ± 1.11 nM

**Q.** And the “Selectivity Index (SI) MCF-7” value [1]?
**A.** 6.71

**Q.** What about the IC50 ([2]; Homo sapiens, HCC70, 96 h, HCC70 cells, positive control in nM) of the same molecule?
**A.** 3.92 ± 1.03 nM

**Q.** What about the “Selectivity Index (SI) HCC70” value [2] of the same molecule?
**A.** 4.12

**Q.** And the IC50 ([3]; Homo sapiens, MCF-12A, positive control in nM)?
**A.** 16.2 ± 1.08 nM

**Q.** Which IC50 [1, 5] does the source give for `CC(=O)O[C@@H]1C[C@@]2(CO2)[C@](O)(CCc2ccoc2)[C@]23CCC[C@](C)(C(=O)OC2)[C@H]13` [Compound 4, nepetaefuran] here?
**A.** > 200000 nM

**Q.** What about the “cytotoxic activity against MCF-7 (in words)” value [1] of the same molecule?
**A.** no cytotoxic activity

**Q.** And the IC50 [2, 7]?
**A.** 73700 ± 1100 nM

**Q.** What about the “Selectivity Index (SI) HCC70” value ([2]; listed as nepetaefuran (4)) of the same molecule?
**A.** 2.715

**Q.** What about the IC50 [3, 8] of the same molecule?
**A.** > 200000 nM

**Q.** And the “cytotoxic activity against MCF-12A (in words)” value [3]?
**A.** no cytotoxic activity

**Q.** What about the “anti-inflammatory activity, LPS pathway / NF-kappa B transactivation (in words)” value (NF-kappa B) of the same molecule?
**A.** suppression of the transactivation of NF-kappa B

**Q.** For `C[C@@]12CCC[C@]3(C)C(=O)O[C@H](C[C@@]4(CO4)[C@]1(O)CCc1ccoc1)[C@H]23` [Compound 5, leonotin], which “cytotoxic activity against leukemic cell lines (in words)” value [4] is on record?
**A.** cytotoxic activity

**Q.** Which IC50 [1, 5] does the source give for `CC(=O)O[C@@H]1C[C@@]2(CO2)[C@]2(CC[C@@]3(C=COC3)O2)[C@]23CCC[C@](C)(C(=O)OC2)[C@H]13` [Compound 1, 13S-nepetaefolin] here?
**A.** > 200000 nM

**Q.** What about the “Selectivity Index (SI) MCF-7” value [1] of the same molecule?
**A.** <0.132

**Q.** What about the IC50 ([1]; resazurin, triplicate, listed as 13S-Nepetaefolin (1)) of the same molecule?
**A.** > 200000 nM

**Q.** What about the IC50 [2, 7] of the same molecule?
**A.** 24600 ± 1180 nM

**Q.** And the “Selectivity Index (SI) HCC70” value ([2]; listed as 13S-Nepetaefolin (1))?
**A.** 1.08

**Q.** And the “Selectivity Index (SI) HCC70” value ([2]; listed as 13S-nepetaefolin (1))?
**A.** 1.077

**Q.** What about the IC50 [3, 8] of the same molecule?
**A.** 26600 ± 1320 nM

**Q.** What does the source list for leonotinin [Compound 6]?
**A.** cytotoxic activity against MCF-7 (in words) [1]: no cytotoxic activity; IC50 ([1]; resazurin, triplicate): > 200000 nM; IC50 ([2]; HCC70 cells, resazurin, triplicate): 94900 ± 1100 nM; Selectivity Index (SI) HCC70 ([2]; listed as leonotinin (6)): 2.108; cytotoxic activity against leukemic cell lines (in words) [4]: cytotoxic activity; cytotoxic activity against MCF-12A (in words) [3]: no cytotoxic activity; IC50 ([3]; resazurin, triplicate): > 200000 nM; anti-inflammatory activity, LPS pathway / NF-kappa B transactivation (in words) (NF-kappa B): suppression of the transactivation of NF-kappa B

**Q.** With `CC(=O)O[C@@H]1C[C@@H](C)[C@](O)(CCc2ccoc2)[C@]23CCC[C@](C)(C(=O)OC2)[C@H]13` [Compound 3, dubiin] as the molecule, how does the IC50 [1, 5] read?
**A.** > 200000 nM

**Q.** What about the “cytotoxic activity against MCF-7 (in words)” value [1] of the same molecule?
**A.** non-toxic

**Q.** And the IC50 [2, 7]?
**A.** 127900 ± 1230 nM

**Q.** What about the “Selectivity Index (SI) HCC70” value ([2]; listed as dubiin (3)) of the same molecule?
**A.** 1.564

**Q.** What about the IC50 [3, 8] of the same molecule?
**A.** > 200000 nM

**Q.** What about the “cytotoxic activity against MCF-12A (in words)” value [3] of the same molecule?
**A.** non-toxic
